Assay results as given in patent US20190298717A1 (BOARD OF REGENTS, THE UNIVERSITY OF TEXAS SYSTEM, priority 2016, published 2019).

Assays:
[1] = tested on: primary cortical neuronal cells; settings: 0.1, 1, 10 μM, 1 μM rotenone, 24 hours
Method: (§1) The inventors first measured the cell proliferation to evaluate the stress caused by expression of tau fibrils in aggregate-positive and negative cells (FIG. 6A). […] The inventors also measured the concentration of superoxide ions (O2-), a detrimental byproduct of oxidative phosphorylation, as an ROS representative. […] The inventors next measured expression of Nrf2 and HO-1 in the same cells (FIG. 6C). […] Aggregate-positive and -negative KD cells were treated with 200 μM H2O2 for 24 h. Cytotoxicity was measured as release of LDH.
(§2) Cell Viability and Cytotoxicity Assay. Cell growth was analyzed using the MTT cell viability assay. Briefly, at the end of incubation/treatment, MTT reagent was diluted in culture medium and aliquoted into each well. After incubation for 2 hours, the medium was aspirated and DMSO was aliquoted into each well to disrupt the cells and dissolve the intracellular MTT dyes. Absorbance was read at 570 nm wavelength in a 96-well plate reader. Cell toxicity was detected using a LDH cell toxicity assay kit (Promega, Fitchburg Wis.). This is a coupled enzymatic assay that detects a visible color signal initially described by Nachlas et. al. The reagent contained excess concentrations of lactate and NAD+as substrates to drive the LDH reaction and produce NADH. In the presence of diaphorase, NADH drives the enzyme-catalyzed conversion of iodonitro-tetrazolium violet to a red formazan product. Briefly, DMEM medium was withdrawn from each well of the plate after treatment and briefly centrifuged to get rid of floating cells or cell debris. Then, the medium supernatant was mixed with equal volume of substrate/enzyme mixture included in the kit (lactate, NAD+, diaphorase and iodonitro-tetrazolium violet), followed by incubation at room temperature for 15 minutes before the addition of acetic acid to cease the reaction. The absorbance was read at 490 nm in a 96-well plate reader. […] Cell viability assay was performed using CellTiter-Glo assay.

[2] = tested on: HEK293 cells overexpressing tau residues 244 to 372, with mutations of P301L and V337M
Method: as §1, §2

SKN-1 = tested on: SKN-1
Method: (§3) Western Blot Analysis. Protein expression was determined by Western blot analysis. Equal amount of protein from each sample was run in Tris-glycine SDS PAGE gel, followed by transferring to PVDF membrane. After blocking the membrane with 5% milk for 1 hour at room temperature, the membrane was incubated further for 2 hours with antibodies specific for target proteins: Nrf2, pNrf2(S40) from Novus (Littleton, Colo.); Keap1, HO-1, NQO1, GCLc, GCLm and lamin B1 from Cell Signaling (Danvers, Mass.); GAPDH from Santa Cruz (Dallas, Tex.); β-Actin from Thermo Fisher (Waltham, Mass.). The membrane was subsequently incubated with species-specific HRP-conjugated secondary antibody followed by incubation with chemiluminescence substrate and imaging. The band intensity of each of the target proteins was quantified using ImageQuant software (GE Healthcare, Sweden). Western blot analysis on worm lystaes was done similarly. […] Equal amounts of protein were run on the gel and SKN-1 protein level was detected using anti-GFP antibody.

SH-SY5Y cells = test: H2O2-EC50 of hydralazine and its analogs (protection from H2O2 stress); format: cell-based; settings: Homo sapiens
Method: To generate intracellular aldehydes, the inventors treated human neuroblastoma cell line (SH-SY5Y) with 100 μM hydrogen peroxide (H2O2) for 24 h. Carbonyl groups were quantified using 2,4-DNPH (dinitrophenylhydrazine) assay.
as §2

[3] = tested on: NMNAT-1, SIRT1, SIRT5 and COX-IV
Source text: Data were normalized to actin. […] The intensity of the bands was normalized to actin. Data are mean±SEM of triplicate measurements.

Nrf2 and HO-1 = tested on: Nrf2 and HO-1
Method: as §1, §3

GSH and GSSG = settings: SH-SY5Y, 10 μM, 24 h
Method: GSH is regulated by the rate-limiting enzyme GCL consisted of GCLc and GCLm subunits. […] The inventors then used extracellular lactate dehydrogenase cytotoxicity assay to measure cell survival.
Measurement of GSH/GSSG. The intracellular GSH and GSSG content were determined using a GSH/GSSG-Glo Assay kit (Promega, Fitchburg Wis.) following the manufacturer's instructions. Briefly, after treatment, half of the cells were lysed using total lysis buffer and the other GSSG lysis buffer for 5 minutes. Luciferin generation reagents (luciferin-NT plus Glutathione-S-Transferase) were then added into each well, followed by incubation for 30 minutes. Finally, luciferin detection reagents including Ultra-Glo™ Luciferase were aliquoted into each well. After 10-minute incubation, luminescence was read in a 96-well plate reader. GSH level was calculated by subtracting GSSG level from the total, and GSH/GSSG ratio was calculated as ([Total]−[GSSG])/[GSSG].

Nrf2 = tested on: Nrf2
Method: The inventors quantified Nrf2 protein in treated cells as a first step towards validating the prediction of the Nrf2 pathway.
Nrf2 phosphorylation on serine 40 is a regulatory modification required for Nrf2 translocation to nucleus and downstream protein activation.
as §3
Cell Fractionation. Nuclear and cytoplasmic fractions were separated using the protocol and NE-PER Nuclear and Cytoplasmic Extraction Reagents provided by […]. Briefly, the cells were harvested and washed with ice-cold PBS buffer. The cells were resuspended in ice-cold CER-I buffer and incubated on ice for 10 minutes, followed by addition of CER-II buffer and incubation for one more minute on ice. The lysate was centrifuged at 16,000 g for 5 minutes. The supernatant was the cytoplasmic fraction. The pellet obtained was lysed in ice-cold NER buffer to obtain nuclear protein fractions.

[4] = tau aggregate cells treated with 0, 10, 20 μM (FIG. 6C), comparator not stated

NNc1nncc2ccccc12 [Hydralazine]
viability of primary neuronal cells under rotenone [1]: rescues primary neuronal cells from rotenone toxicity in a dose-dependent manner
cell viability under rotenone ([2]; 20 μM, 1 μM rotenone, 24 h): protects both aggregate-positive and negative cells
cell viability in Nrf2 KD cell line ([2]; Nrf2 knockdown tau cells): did not improve cell viability
cell growth of aggregate-positive cells ([2]; tau aggregate-positive HEK293): improved
expression of SKN-1 isoforms (B and C) by Western blot (SKN-1; 100 μM, 72 hours): showed increases
signal intensity and localization of SKN-1::GFP in intestinal nuclei and ASI neurons (SKN-1; in vivo): significantly increased
EC50 (SH-SY5Y cells): 6.78 µM
transcription level of NMNAT-1, SIRT1, SIRT5 (qRT-PCR) ([3]; 20 μM, 12 hours): increased the transcription level
NMNAT-1, SIRT1, SIRT5 protein (Western blot) ([3]; 10 and 20 μM): up-regulated at the protein level
level of COX-IV ([3]; after 48 hours): significant increase
Nrf2 expression with hydralazine and rotenone compared to rotenone only (Nrf2 and HO-1; aggregate-positive cells, 20 μM, 1 μM rotenone, 24 h): higher
HO-1 expression increase (Nrf2 and HO-1; [4]): ~25%
Nrf2 expression, higher (Nrf2 and HO-1; [4]): 1.5 fold
GSH/GSSG ratio, higher (GSH and GSSG): 5%
intracellular GSH (GSH and GSSG): increased GSH
increase of phosphorylation of Nrf2 on serine 40 in the nuclear compartment (Nrf2; SH-SY5Y): 25%
phosphorylation of cytosolic Nrf2 (Nrf2; SH-SY5Y): no change was observed
increase in Nrf2 level compared to untreated cells (Nrf2; SH-SY5Y, 10 μM, 24 h, Western blotting): about 20%
cytosolic Nrf2 fraction (Nrf2; SH-SY5Y, 10, 20 μM): remained unchanged
nuclear localization of Nrf2 (Nrf2; SH-SY5Y, 10, 20 μM): significantly increased
